Some test systems named below: CCRF-CEM leukemia; HL-60(TB) leukemia; M14 melanoma; MALME-3M melanoma; SK-MEL-2 melanoma; SK-OV-3 ovarian; SW-620 colon; UACC-62 melanoma; 786-0 renal; NCI/ADR-RES ovarian; DU-145 prostate.
What all share (test): NCI-60 cell line screen, 48 h

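Cells were grown in 96-well plates and exposed to each compound for 48 hours at five concentrations; endpoints were interpolated linearly between bracketing concentrations, or set to the highest concentration if not reached. GI50 is the concentration that inhibits growth by half. TGI marks complete inhibition of growth.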 Bounds are passed on as bounds.

In the case of `Cc1ccc(Sc2ccccc2[N+](=O)[O-])cc1`, the TGI is more than 100 µM with CCRF-CEM leukemia; 58.6 µM with HL-60(TB) leukemia; more than 100 µM in the assay on M14 melanoma; more than 100 µM with MALME-3M melanoma; more than 100 µM with SK-MEL-2 melanoma; more than 100 µM with SK-OV-3 ovarian. The TGI in the assay with SW-620 colon and in the assay on UACC-62 melanoma was more than 100 µM each time.

Turning to `CNc1ccc2ncccc2c1[N+](=O)[O-]`, the TGI in the assay with 786-0 renal, in the assay with CCRF-CEM leukemia, in the assay on HL-60(TB) leukemia, in the assay on M14 melanoma, in the assay with MALME-3M melanoma and in the assay on SK-MEL-2 melanoma was more than 100 µM each time. Moreover, the TGI in the assay with SW-620 colon and in the assay on UACC-62 melanoma was more than 100 µM throughout.

On to `CCC(COC(=O)CC[C@@H](NC(=O)C(C)NC(=O)C(C)OC1C(O)C(CO)OC(OCc2ccccc2)C1NC(C)=O)C(N)=O)NC1c2ccccc2Nc2cccc([N+](=O)[O-])c21` (some centres not stated), for which the TGI in the assay with 786-0 renal, in the assay with CCRF-CEM leukemia, in the assay with HL-60(TB) leukemia, in the assay on M14 melanoma, in the assay with MALME-3M melanoma and with SK-MEL-2 melanoma was more than 100 µM in each case. Also, the TGI in the assay with SK-OV-3 ovarian, in the assay with SW-620 colon and in the assay on UACC-62 melanoma was more than 100 µM each time.

On to `CN(C)CCNC(=O)c1cccc2cc3cc(O)ccc3nc12`, for which the TGI in the assay on CCRF-CEM leukemia came out at 5.44 µM; in the assay on HL-60(TB) leukemia, 2.37 µM; in the assay with MALME-3M melanoma, 2.54 µM; with NCI/ADR-RES ovarian, 11.4 µM; with SK-MEL-2 melanoma it was 3.81 µM; in the assay with SK-OV-3 ovarian it was 4.27 µM. In addition, the TGI in the assay with SW-620 colon was 3.46 µM; in the assay with UACC-62 melanoma, 2.74 µM.

Regarding `CC(C)OP(=O)(OC(C)C)C1=NN(c2ccc([N+](=O)[O-])cc2)C(P(=O)(OC(C)C)OC(C)C)=NN1c1ccc([N+](=O)[O-])cc1`, the TGI in the assay on CCRF-CEM leukemia is more than 100 µM; in the assay on HL-60(TB) leukemia it was 16.4 µM; in the assay on M14 melanoma, more than 100 µM; with MALME-3M melanoma, more than 100 µM; in the assay on SK-MEL-2 melanoma, more than 100 µM; in the assay with SK-OV-3 ovarian, more than 100 µM. Moreover, the TGI with SW-620 colon and in the assay with UACC-62 melanoma was more than 100 µM throughout.

For the compound `CCCc1c(C(=O)OCC)[nH]c(-c2ccc(-c3[nH]c(C(=O)OCC)c(CCC)c3C(=O)OCC)s2)c1C(=O)OCC`, the TGI was more than 100 µM in the assay on 786-0 renal; more than 100 µM in the assay with CCRF-CEM leukemia; more than 100 µM in the assay with HL-60(TB) leukemia; more than 100 µM in the assay on M14 melanoma; more than 100 µM in the assay with MALME-3M melanoma; 57.2 µM in the assay on SK-MEL-2 melanoma. Besides, the TGI in the assay on SK-OV-3 ovarian was 98.6 µM; in the assay on SW-620 colon, more than 100 µM; with UACC-62 melanoma, more than 100 µM.

As to `C=C(C)C1CC/C(C)=C/CC[C@]2(C)O[C@@H]2CCC2=CC1OC2=O` (some centres not stated), the GI50 in the assay with CCRF-CEM leukemia was 10.3 µM; in the assay with DU-145 prostate, 18.4 µM; in the assay with M14 melanoma it was 37.2 µM; with NCI/ADR-RES ovarian it was more than 100 µM; with SK-MEL-2 melanoma, 57.5 µM; in the assay with SK-OV-3 ovarian, more than 100 µM. Moreover, the GI50 with UACC-62 melanoma is 78.8 µM. In addition, the TGI is 21.9 µM with CCRF-CEM leukemia; more than 100 µM in the assay on DU-145 prostate; more than 100 µM with M14 melanoma; more than 100 µM in the assay with NCI/ADR-RES ovarian; more than 100 µM in the assay with SK-MEL-2 melanoma; more than 100 µM with SK-OV-3 ovarian. The compound further had a TGI in the assay on UACC-62 melanoma of more than 100 µM.

Consider `CC1(C)CC2(C)CC1CC2(O)c1ccccc1` (configuration not stated), for which the TGI in the assay with 786-0 renal, in the assay on CCRF-CEM leukemia, in the assay on DU-145 prostate, in the assay on HL-60(TB) leukemia, in the assay on M14 melanoma and in the assay with MALME-3M melanoma was more than 100 µM throughout. The TGI with SK-OV-3 ovarian, with SW-620 colon and in the assay with UACC-62 melanoma was more than 100 µM in each case.

Take `CC(=O)NC(CCCCN)C(=O)NCc1ccccc1` (configuration not stated): the TGI in the assay with 786-0 renal, with CCRF-CEM leukemia, in the assay with M14 melanoma, in the assay with MALME-3M melanoma, in the assay with SK-MEL-2 melanoma and with SK-OV-3 ovarian was more than 100 µM each time. The TGI in the assay with SW-620 colon and in the assay with UACC-62 melanoma was more than 100 µM throughout.

On to `COC(=O)CC(C(C(=O)OCc1ccccc1)C(C)O)N1C(=O)OC(c2ccccc2)C1c1ccccc1` (configuration not stated), for which the TGI with 786-0 renal, in the assay on CCRF-CEM leukemia, with HL-60(TB) leukemia, in the assay with M14 melanoma, in the assay with MALME-3M melanoma and in the assay with SK-MEL-2 melanoma was more than 100 µM in each case. In addition, the TGI in the assay on SW-620 colon and with UACC-62 melanoma was more than 100 µM throughout.

Regarding `CC1(C)C2CCC3(OCCO3)C1C(O)C2` (configuration not stated), the TGI in the assay with 786-0 renal, in the assay on CCRF-CEM leukemia, in the assay on HL-60(TB) leukemia, with M14 melanoma, with MALME-3M melanoma and in the assay with SK-MEL-2 melanoma was more than 100 µM in each case. In addition, the TGI in the assay with SW-620 colon and in the assay on UACC-62 melanoma was more than 100 µM in each case.

Take `N#C/C(=C\c1cccc(O)c1O)C(N)=O`: the TGI in the assay on 786-0 renal was more than 100 µM; in the assay with CCRF-CEM leukemia, 45.3 µM; with HL-60(TB) leukemia, 31.1 µM; with M14 melanoma, more than 100 µM; with MALME-3M melanoma it was more than 100 µM; with SK-MEL-2 melanoma it was more than 100 µM. Further, the figures for the TGI with SK-OV-3 ovarian, in the assay with SW-620 colon and with UACC-62 melanoma were 93.7 µM, more than 100 µM and more than 100 µM, respectively.

On to `COc1ccc2c(c1)OCCc1cn[nH]c1-2`, for which the TGI in the assay with CCRF-CEM leukemia was more than 100 µM; in the assay with HL-60(TB) leukemia, 36 µM; with MALME-3M melanoma it was more than 100 µM; in the assay on NCI/ADR-RES ovarian it was more than 100 µM; in the assay on SK-MEL-2 melanoma it was more than 100 µM; with SK-OV-3 ovarian it was more than 100 µM. Moreover, the TGI is more than 100 µM with SW-620 colon and 84.3 µM in the assay with UACC-62 melanoma.

Consider `CCSCN(C)c1nc(N(C)C)nc(N(C)C)n1`, for which the TGI in the assay on 786-0 renal was more than 100 µM; with CCRF-CEM leukemia, more than 100 µM; with HL-60(TB) leukemia it was 81.9 µM; with M14 melanoma it was more than 100 µM; with MALME-3M melanoma, more than 100 µM; in the assay on SK-MEL-2 melanoma, more than 100 µM. The TGI in the assay with SK-OV-3 ovarian, with SW-620 colon and in the assay with UACC-62 melanoma was more than 100 µM each time.

Turning to `O=C1C[C@@H]2[C@@H](CCC23CC3)N1`, the TGI in the assay with 786-0 renal, in the assay with CCRF-CEM leukemia, in the assay with HL-60(TB) leukemia, in the assay with M14 melanoma, in the assay on MALME-3M melanoma and in the assay with SK-MEL-2 melanoma was more than 100 µM in each case. The TGI in the assay on SK-OV-3 ovarian, in the assay on SW-620 colon and in the assay with UACC-62 melanoma was more than 100 µM in each case.

Source of the values: PubChem BioAssay (NCI).
